{"source": "patent US12213980B2", "about": "“Application of PDE9A inhibitor in preparation of products having elevated Treg content, drugs for preventing and treating inflammatory bowel disease and health care products” (ZHEJIANG UNIVERSITY, priority 2018, dated 2025)", "key": {"[1]": {"test_system": "colonic mucin secretion in DSS model mice", "assay": "Intestinal mucin secretion test in DSS-induced model", "type": "in vivo, C57 female mice", "excerpt": "FIG. 3 is a control map of colonic mucin secretion in DSS model mice. It can be obtained from FIG. 3. The DSS group lost epithelial integrity, crypt structure, and goblet cell, company with immune cell infiltration, Smooth muscle cell hypertrophy and reduced secretory glycoprotein when compared with the control group."}, "DSS mice": {"test_system": "DSS mice", "assay": "DSS-induced mouse model, overall comparison with sulfasalazine", "type": "in vivo, C57 female mice", "settings": "high-dose PF-04447943 group (30 mg/kg) vs sulfasalazine at conventional dose (0.5 g/kg)"}, "[2]": {"test_system": "SOD activity and MDA amount in colon tissue", "description": "(§1) C57 female mice were selected and weighed about 20 g. All mice were randomly divided into control group (control group), model group (DSS group), sulfasalazine group (AS group) and low dose group (PF3 group). The middle dose group (PF10 group) and the high dose group (PF30 group), a total of 6 groups, 10 mice in each group.\n(§2) The control group was treated with deionized water and the remaining 5 groups were fed with 3% DSS solution.\n(§3) During the period, the sulfasalazine group was intragastrically administered at a dose of 0.5 g/kg, and the PF-04447943 low-dose group, the middle-dose group, and the high-dose daily gavage were administered at a dose of 3 mg/kg, 10 mg/kg, and 30 mg/kg, respectively. The body weight, water bottle weight and the record were weighed daily. On the 8th day, the mice were sacrificed by deep anesthesia, and the colon, mesenteric lymph nodes, spleen and anus were taken. The length of the colon was measured and the colon was divided into three sections. The anal part specimens were fixed in formalin and the remaining specimens were stored frozen at −80° C. Isolating the mononuclear cells of colon, mesenteric lymph node and spleen, then staining separately, the distribution of DC cells and Treg cells in colon, mesenteric lymph nodes and spleen were determined by flow cytometry. IL-6, IL-12, TNF-α, IL-17 etc were measured by ELISA. SOD activity and MDA amount in colon tissue were measured, and the effect of PDE9A inhibitor PF-04447943 on mouse model was analyzed.\nAfter the intestinal tissue homogenization, SOD activity and MDA amount in colon tissue were determined by SOD and MDA assay kits."}, "[3]": {"test_system": "TNF-α, IL-17, IL-6, IL-12/IL-23 in colon tissue", "description": "as §1, §2, §3\nAfter intestinal tissue homogenization, TNF-α, IL-17, IL-6, IL-12/IL-23 in colon tissue were determined by ELISA kit."}, "DSS modeled mice": {"test_system": "DSS modeled mice", "assay": "DSS induced model weight and colon length test", "type": "in vivo, C57 female mice"}, "[4]": {"test_system": "DC cells in colon and mesenteric lymph nodes", "assay": "Activation test of intestinal mucosa DC in DSS induced model (flow cytometry)", "type": "in vivo, C57 female mice", "description": "as §1, §2, §3\nThe colon was digested with collagenase, and the mesenteric lymph nodes were ground and sieved through 100 mesh to prepare single cell suspensions. The cell density was adjusted to […], and the DC cell amount was determined for each sample.\nFIG. 5 is a control plot of total DC and mature DC in colon, mesenteric lymphatic cleansing in DSS model mice."}, "[5]": {"test_system": "Treg cells in mesenteric lymph node, spleen and colon", "assay": "Activation test of Treg in DSS induction model (flow cytometry)", "type": "in vivo, C57 female mice", "description": "The colon was digested with collagenase, and the mesenteric lymph nodes and spleen tissues were ground and sieved through 100 mesh to prepare single cell suspensions. The cell density was adjusted to 10^5 cell/100 μl, and the Treg amount was determined for each sample.\nRelated studies have shown that T cells, especially Treg cells, play a role in the protection of DSS inflammatory bowel disease model. In order to study the role of Treg in the DSS colitis model, three mesenteric lymph nodes, spleen and colon were evaluated based on trial 4, respectively."}, "[6]": {"settings": "cited from earlier work"}, "[7]": {"settings": "high dose group (30 mg/kg) vs DSS group"}, "[8]": {"settings": "high, medium and low dose groups vs DSS group"}, "[9]": {"settings": "high dose group (30 mg/kg) vs DSS group and control group"}, "[10]": {"settings": "high, medium and low dose groups vs control and DSS groups"}}, "note": "Like-named read-outs stand apart in the source and are kept apart here.", "data": [{"molecule": "C[C@@H]1CN(Cc2ncccn2)C[C@H]1c1nc2c(cnn2C2CCOCC2)c(=O)[nH]1", "note": "[PF-04447943]", "values": [{"measurement": "destruction of intestinal mucosal mucin secretion induced by DSS", "setting": "[1]; conclusion, dose not stated", "value": "significantly inhibit"}, {"measurement": "loss of epithelial integrity and crypt structure, loss of goblet cells, immune cell infiltration, smooth muscle cell hypertrophy, secretory glycoprotein reduction", "setting": "[1]; low-dose, medium-dose and high-dose groups (3, 10, 30 mg/kg)", "value": "gradually reversed"}, {"measurement": "protective effect on colonic epithelial cells", "setting": "[1]; with increasing dose of PF-04447943 (3, 10, 30 mg/kg)", "value": "gradually better"}, {"measurement": "efficacy in IL-6 secretion, SOD activity, MDA amount, activation of DC and regulation of Treg", "setting": "DSS mice", "value": "superior to the conventional drug sulfasalazine at conventional dose"}, {"measurement": "DSS-induced intestinal oxidative stress damage", "setting": "[2]; conclusion, dose not stated", "value": "significantly inhibit"}, {"measurement": "MDA amount in colon tissue", "setting": "[2]; drug group vs DSS group", "value": "lower than that of the DSS group"}, {"measurement": "MDA amount in colon tissue", "setting": "[2]; [7]", "value": "statistically different from the DSS group"}, {"measurement": "SOD activity in colon tissue", "setting": "[2]; [7]", "value": "improved compared with the DSS group"}, {"measurement": "DSS-induced inflammatory factors secreted by the intestinal mucosa", "setting": "[3]; conclusion, dose not stated", "value": "significantly inhibits"}, {"measurement": "IL-6 level in colon tissue", "setting": "[3]; [7]", "value": "significantly lower than those in the DSS group"}, {"measurement": "IL-12/IL-23 level in colon tissue", "setting": "[3]; [7]", "value": "statistically significant compared with the DSS group"}, {"measurement": "IL-17 level in colon tissue", "setting": "[3]; [7]", "value": "statistically significant compared with the DSS group"}, {"measurement": "TNF-α level in colon tissue", "setting": "[3]; [7]", "value": "statistically significant compared with the DSS group"}, {"measurement": "IL-6 level in colon tissue", "setting": "[3]; middle dose group (10 mg/kg) vs DSS group", "value": "significantly lower than those in the DSS group"}, {"measurement": "colon length", "setting": "DSS modeled mice; PF30 group (30 mg/kg) vs DSS group", "value": "significant difference"}, {"measurement": "weight loss and colon shortening in the DSS-induced model", "setting": "DSS modeled mice; conclusion, dose not stated", "value": "inhibited the weight loss and colon shortening"}, {"measurement": "migration of DC cells from the colon to the mesenteric lymph nodes and DC maturation", "setting": "[4]; conclusion, dose not stated", "value": "can inhibit"}, {"measurement": "activated DC cells in mesenteric lymph node (MLN)", "setting": "[4]; [8]", "value": "significantly lower than the DSS group"}, {"measurement": "activated DC (mDC) cells in colon", "setting": "[4]; low, medium and high dose groups (3, 10, 30 mg/kg) vs DSS group", "value": "significantly lower than the DSS group"}, {"measurement": "total DC cells in mesenteric lymph node (MLN)", "setting": "[4]; low, medium and high groups (3, 10, 30 mg/kg) vs DSS group", "value": "significantly lower than the DSS group"}, {"measurement": "DSS-inhibited Treg activation", "setting": "[5]; conclusion, dose not stated", "value": "significantly enhanced"}, {"measurement": "differentiation of CD4+Foxp3+ Treg cells", "setting": "[5]; conclusion, dose not stated", "value": "significantly induced an increase"}, {"measurement": "CD4+FOXP3+ Treg cells in colon", "setting": "[5]; [9]", "value": "significantly higher than that of the DSS group and the control group"}, {"measurement": "CD4+FOXP3+ Treg cells in mesenteric lymph nodes", "setting": "[5]; [9]", "value": "significantly higher than that of the DSS group and the control group"}, {"measurement": "CD4+FOXP3+ Treg cells in spleen", "setting": "[5]; [9]", "value": "significantly higher than that of the DSS group and the control group"}, {"measurement": "CD4+CD25+ Treg cells in colon", "setting": "[5]; [8]", "value": "significantly higher in the colon than in the DSS group"}, {"measurement": "CD4+CD25+ Treg cells in mesenteric lymph nodes", "setting": "[5]; [10]", "value": "significantly lower"}, {"measurement": "CD4+CD25+ Treg cells in spleen", "setting": "[5]; [10]", "value": "significantly lower"}]}, {"molecule": "O=C(O)c1cc(/N=N/c2ccc(S(=O)(=O)Nc3ccccn3)cc2)ccc1O", "note": "[sulfasalazine]", "values": [{"measurement": "activated DC cells in colon", "setting": "[4]; sulfasalazine group 0.5 g/kg, compared with PF-04447943 dose groups", "value": "lower than the high dose group"}]}, {"molecule": "vedolizumab: α4β7 integrin antibody approved by the FDA in 2014 for moderate to severe UC and CD", "values": [{"measurement": "patients with adverse reactions", "setting": "[6]; CD patients", "value": 37, "unit": "%"}, {"measurement": "patients with adverse reactions", "setting": "[6]; UC patients", "value": 29, "unit": "%"}, {"measurement": "clinical improvement", "setting": "[6]; patients treated with vedolizumab", "value": "significant Clinical improvement"}]}]}
